The text below walks through data of article PMC8508660 (2021).

Experiment [1] relates to 22HT (DNA, G4) AGGGTTAGGGTTAGGGTTAGGG
Briefly: CD melting, 295 nm. The following applies: 100 mM Na+; 10 mM cacodylate pH 7.2; 2 µM DNA, 3 equiv. (6 µM) ligand; derived from two Tm (±0.5).

Experiment [2] concerns c-MYC (DNA, G4) TGAGGGTGGGTAGGGTGGGTAA
The experiment in a line: CD melting, 265 nm. As to conditions: 10 mM K+, 90 mM Li+; 10 mM cacodylate pH 7.2; 2 µM DNA, 3 equiv. (6 µM) ligand; derived from two Tm (±0.5).

Experiment [3] relates to 22HT (DNA, G4) AGGGTTAGGGTTAGGGTTAGGG
The experiment in a line: CD melting, 290 nm. The following applies: 100 mM K+; 10 mM cacodylate pH 7.2; 2 µM DNA, 3 equiv. (6 µM) ligand; derived from two Tm (±0.5).

In experiment [4] the test system is TBA (DNA, aptamer) GGTTGGTGTGGTTGG
The experiment in a line: CD melting, 295 nm. As to conditions: 100 mM K+; 10 mM cacodylate pH 7.2; 2 µM DNA, 3 equiv. (6 µM) ligand; derived from two Tm (±0.5).

On to `COc1nc2c(N)ncnc2[n+]2ccccc12`, for which the ΔTm (commonly the shift of the melting midpoint relative to a reference) in experiment [1] was -0.2 °C; in experiment [2], -0.2 °C; in experiment [3], 0.7 °C; in experiment [4] it was -0.4 °C.
